# Literature values, collected in patent publication US7413751B2, “Methods of treatment using a gastric retained losartan dosage” (Depomed, Inc., priority 2001, dated 2008).
# Where two headings read alike, the source gives them in different places.
# How the values were obtained:
# [1] = tested on: diastolic pressure response to angiotensin II
SMILES,half-life (Japanese patients tested) [h],half-life (in vivo) [h],tmax (in vivo) [h],effects at 24 hours ([1]; 25 mg dosage),effects at 24 hours ([1]; 50 mg and 100 mg dosages),peak:trough blood pressure ratio (5-6 hours after dosing: 24 hours after dosing) ([1]; 50 mg dosage) [%],peak:trough blood pressure ratio (5-6 hours after dosing: 24 hours after dosing) ([1]; 100 mg dosage) [%],blockade of the diastolic pressure response to angiotensin II ([1]; 24 hours after dosing)
CCCCc1nc(Cl)c(C(=O)O)n1Cc1ccc(-c2ccccc2-c2nn[nH]n2)cc1 [active metabolite of losartan potassium],4 to 5,6 to 9,2 to 4,–,–,–,–,–
"CCCCc1nc(Cl)c(CO)n1Cc1ccc(-c2ccccc2-c2nnn[nH]2)cc1.[K] [losartan potassium, 2-butyl-4-chloro-1[p-(o-1H-tetrazol-5-ylphenyl)benzyl]imidazole-5-methanol monopotassium salt]",–,–,–,not,observed,60,72,approximately 30%
